According to patent publication US20260115202A1, “TOPICAL COMPOSITIONS COMPRISING AN ESTETROL COMPONENT AND USE OF SAID COMPOSITIONS FOR WOUND HEALING” (NEURALIS SA, priority 2022, published 2026):
Entries after “also recorded” stand apart in the source; their conditions may differ.

Legend:
[1] = test system: murine dermal fibroblasts (MDF); assay: qPCR gene expression in murine dermal fibroblasts; format: cell-based, mouse; conditions: for expression of ERα and ERβ: MDF, 10^−7M, qPCR
Description: Primary human dermal fibroblasts (HDF) were isolated from abdominal skin or leg skin. Primary neonatal normal human epidermal keratinocytes (NHEK) were purchased (Lonza). Murine dermal fibroblasts (MDF), murine epidermal keratinocytes (MEK), murine peritoneal macrophages and murine bone marrow were isolated from C57/B16 (wt). NDb (Lepr+/−) or Db (Lepr−/−) mice. Fibroblasts were isolated and cultured in DMEM supplemented with 10% heat inactivated FBS. 1% penicillin/streptomycin and 1% amphotericin B. At least 4 days prior to performing assays cells were switched to DMEM supplemented with 5% charcoal-stripped FBS. Following treatments, human and murine macrophages were collected in Trizol and RNA isolated using the Trizol plus RNA isolation kit (Invitrogen. Thermo Fisher) according to the manufacturer's instructions. RNA was reverse transcribed to cDNA using GoScript reverse transcriptase (Promega). Quantitative real-time PCR was carried out using 2×Takyon SYBR Green mastermix and a CFX Connect thermocycler. Primers for ERα and ERβ were used to explore changes in ER expression after treatment of MEK and MDF with E2 and E4. To investigate the effect of E2 and E4 on MEK differentiation and the expression of ECM proteins by MDF, primers for. Snail, keratin-1 and fibronectin, collagen I. MMP-2 and MMP-9 were used. Primers for INOS. IL-1B and Tnf-α or Ccl17 were used to assess M1/M2 polarisation status. Primers for GAPDH were used to normalise data. Relative gene expression was set to vehicle controls or M0 expression unless otherwise stated. In vitro cultured murine fibroblasts were treated with either E2, E4, DPN or PPT at 10^−7M. As previously reported. […] Next, zymography was performed on cell supernatants from HDFs treated with either E2 or E4, to evaluate the effect of E2 and E4 on cell-derived MMP activity. […] The magnitude of the effect (and statistical significance) was greater in cells treated with E4. No MMP9 activity was detected in any treatment group. Finally, we explored the effect of E2 and E4 on murine fibroblast expression of extracellular matrix genes, specifically collagen 1 (Colal) and fibronectin (Fn1) (FIG. 20).

[2] = test system: Female wild-type (C57BL/6J) 8 weeks old mice; assay: In vivo LPS-induced delayed wound healing model: uterine weight and morphology; conditions: topical, 60 μl on days -1 to 4, LPS mice, assessed at day 5
Description: The in vivo LPS-induced delayed wound healing model was reproduced as previously described (Crompton R, Williams H, Ansell D, Campbell L, Holden K, Cruickshank S, Hardman M J. Oestrogen promotes healing in a bacterial LPS model of delayed cutaneous wound repair. Lab Invest. 2016 April, 96 (4): 439-49).
Female wild-type (C57BL/6J) 8 weeks old mice were split into six groups (6 animals per experimental group): • Double placebo control (no LPS, placebo treatment), • LPS control (LPS, placebo treatment), • LPS with topical EstroGel (estradiol gel, contains 0.06% 17β-estradiol as hemihydrate in a hydro-alcoholic gel), • LPS with topical AG24 (E4 at 0.5%), • LPS with topical AG25 (E4 at 0.22%), • LPS with topical AG26 (E4 at 0.06%).
The day prior to wounding (day −1), all the animals were weighed and anaesthetised using oxygen and isoflurane (flow rate 1.25-2 L with 2-2.5% isoflurane depending on clinical signs). Animals were shaved and dorsal areas prepped. Wound positions (2 wounds) were marked on the dorsum of each animal. Animals received a first subcutaneous injection of 2 μg K. pneumoniae-derived LPS diluted in DPBS (1 μg per wound: Sigma Aldrich, UK: L4268) at the wound site, except the double placebo group that received DPBS only. A thin layer of EstroGel, AG24, AG25, AG26 or placebo were then applied to the dorsum of each animal, measured as 60 μl total (30 μl/wound). […]

[3] = test system: wound expression of M1 (TNF-α and IL1-β) and M2 (Fizz1 and Ym1) markers; assay: In vivo LPS model: qPCR of M1 and M2 markers in wound tissue RNA; parameters: species or system mice; conditions: versus LPS/PBO control
Description: Female wild-type (C57BL/6J) 8 weeks old mice were split into six groups (6 animals per experimental group): • Double placebo control (no LPS, placebo treatment), • LPS control (LPS, placebo treatment), • LPS with topical EstroGel (estradiol gel, contains 0.06% 17β-estradiol as hemihydrate in a hydro-alcoholic gel), • LPS with topical AG24 (E4 at 0.5%), • LPS with topical AG25 (E4 at 0.22%), • LPS with topical AG26 (E4 at 0.06%). The day prior to wounding (day -1), all the animals were weighed and anaesthetised using oxygen and isoflurane (flow rate 1.25-2 L with 2-2.5% isoflurane depending on clinical signs). Animals were shaved and dorsal areas prepped. Wound positions (2 wounds) were marked on the dorsum of each animal. […] A thin layer of EstroGel, AG24, AG25, AG26 or placebo were then applied to the dorsum of each animal, measured as 60 μl total (30 μl/wound). […] For isolation of RNA and quantitative real time PCR murine macrophages were collected in Trizol and RNA was isolated using a Trizol plus RNA isolation kit (Invitrogen. Thermo Fisher) according to the manufacturer's instructions. […] Quantitative real-time PCR was carried out using 2×Takyon SYBR Green mastermix and a CFX Connect thermocycler. […]

[4] = test system: LPS-induced delayed wound healing mice model; assay: In vivo LPS model, single or repeated administration: wound histology at day 3; conditions: single administration
Description: The in vivo LPS treatment protocol (delayed wound healing model) as presented in example 4 has been repeated with the following groups of animals: • Double placebo group (untreated control). • LPS control (LPS, placebo treatment). • LPS with topical EstroGel (estradiol gel, contains 0.06% 17β-estradiol as hemihydrate in a hydro-alcoholic gel), repeated administration for 4 days. • LPS with topical AG26 (E4 at 0.06%), single administration. • LPS with topical AG26 (E4 at 0.06%), repeated administration for 4 days. • LPS with topical AG28 (E4 at 0.06%), single administration. • LPS with topical AG28 (E4 at 0.06%), repeated administration for 4 days. On day 0 only (single administration), or on days −1, 0, 1 and 2 (repeated administration), topical EstroGel. AG26. AG28 or corresponding placebo was applied in a thin layer over the top of the wounds (60 μl total: 30 μl/wound) during observations. On day 3, mice were humanely culled via rising concentration of CO2 and cervical dislocation. Uteri as well as non-wounded and wound tissue samples were processed as described under example 4. […] Next, we evaluated wound closure from histological samples (FIG. 13). Histological sections were subjected to K14 immunohistochemistry to visualise the newly forming epidermis.

[5] = fibroblasts derived from diabetic (db/db) mice
[6] = fibroblasts derived from wild-type mice

SMILES	expression of ERα and ERβ [1]	expression of collagen 1 and fibronectin (Fn1) [1, 5]	expression of collagen 1 and fibronectin (Fn1) [1, 6]	uterine weight and morphology [2]	wound M1 marker expression (TNF-α, IL1-β) [3]	wound M2 marker expression (Fizz1, Ym1) [3]	numbers of wound neutrophils [4]
C[C@]12CC[C@@H]3c4ccc(O)cc4CC[C@H]3[C@@H]1CC[C@@H]2O [Formulation E2, 17β-estradiol, reference compound]	upregulated expression of both ERα and ERβ	trend towards increased expression of both Co1a1 and Fn1	no effect was observed following treatment	–	–	–	–
C[C@]12CC[C@@H]3c4ccc(O)cc4CC[C@H]3[C@@H]1[C@@H](O)[C@@H](O)[C@@H]2O [Formulation E4, 1,3,5 (10)-estratrien-3,15alpha, 16alpha, 17beta-tetrol]	increases expression of both ERα and ERβ	trend towards increased expression of both Co1a1 and Fn1; also recorded: reached statistical significance for fibronectin (Fn1)	no effect was observed following treatment	affects uterine weight in a dose-dependent manner	reduced M1 marker expression	increased M2 marker expression	reduced numbers of wound neutrophils
